{
  "source": "patent US5444084A",
  "about": "“Substituted heterocyclic derivative having squalene epoxidase inhibition action and its use” (Banyu Pharmaceutical Co., Ltd., priority 1992, dated 1995)",
  "key": {"Human squalene epoxidase": {"target": "T1, Human squalene epoxidase (Homo sapiens, UniProt Q14534)", "T1 construct": "The resultant supernatant is used as the squalene epoxidase fraction in the later-described test; endogenous in cells; host or cells: Hep-G2 human hepatoma cells (microsomes solubilized with Triton X-100)", "T1 sequence (Q14534 whole entry)": "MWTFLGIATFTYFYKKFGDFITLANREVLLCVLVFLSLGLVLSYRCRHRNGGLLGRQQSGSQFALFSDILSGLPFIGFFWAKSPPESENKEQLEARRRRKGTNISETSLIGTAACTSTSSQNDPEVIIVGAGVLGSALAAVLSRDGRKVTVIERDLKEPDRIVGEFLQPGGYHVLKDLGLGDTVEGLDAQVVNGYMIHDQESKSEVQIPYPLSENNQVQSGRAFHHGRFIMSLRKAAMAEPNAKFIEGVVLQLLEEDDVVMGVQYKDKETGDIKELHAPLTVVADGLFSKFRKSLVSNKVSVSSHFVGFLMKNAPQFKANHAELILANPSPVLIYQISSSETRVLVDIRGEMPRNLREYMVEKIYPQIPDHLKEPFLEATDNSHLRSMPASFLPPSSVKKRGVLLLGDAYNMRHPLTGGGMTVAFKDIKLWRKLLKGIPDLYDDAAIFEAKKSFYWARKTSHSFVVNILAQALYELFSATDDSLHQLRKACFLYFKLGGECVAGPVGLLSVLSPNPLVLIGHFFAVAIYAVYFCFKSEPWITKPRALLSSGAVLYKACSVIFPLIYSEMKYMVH", "assay": "Human squalene epoxidase inhibition action", "format": "biochemical", "conditions": "solubilized Hep-G2 microsome fraction, 8 μM 3H-squalene, 37° C., 60 minutes, read-out: Inhibition rate at 3 μM concentration", "method": "Squalene epoxidase inhibition action\n(1) Preparation of squalene epoxidase\nHuman squalene epoxidase is prepared in accordance with the process disclosed in J. Biol. Chem., 245, 1670 (1970); ibid., 250, 1572 (1975).\nNamely, human hepatoma (Hep-G2) cells are cultured at 37° C. under air containing 5% carbon dioxide. After completion of the culture, the cells are scraped and collected by centrifugation. The cells are suspended in 0.1M Tris-HCl buffer (pH 7.5) (1×10^8 cells/ml), the suspension is homogenized and centrifuged at 9750 Xg for 10 minutes, and then the sediment is washed with 0.1M Tris-HCl buffer (pH 7.5) and centrifuged at 105,000 Xg for 1 hour. The resultant microsome is suspended in 0.1M Tris-HCl buffer (pH 7.5) so that the protein amount becomes 20 mg/ml, and solubilized by stirring the suspension under ice cooling in the presence of 1% Triton X-100. After this solubilization treatment, the concentration of Triton X-100 is diluted to 0.125% with 1 mM EDTA and 1 mM dithiothreitol, and the dilution is centrifuged at 105,000 Xg for 1 hour. The resultant supernatant is used as the squalene epoxidase fraction in the later-described test.\n(2) Assay of squalene epoxidase activity\nAssay of human squalene epoxidase activity is carried out according to the method disclosed in J. Biol. Chem., 245, 1670 (1970).\nNamely, 3 μl of a dimethyl sulfoxide solution of a test chemical is added to a solution consisting of 0.2 ml of the squalene epoxidase fraction [protein amount 0.4 mg, 0.1% Triton X-100, […] Tris-HCl buffer (pH 7.5)] prepared in (1), 100 μM FAD, 1 mM NADPH, 1 mM EDTA and 8 μM ^3 H-squalene-Tween 80 suspension to make the total volume 0.3 ml, and the mixture is subjected to reaction with shaking at 37° C. for 60 minutes. 0.3 ml of 10% potassium hydroxide-methanol solution is added to discontinue the reaction, and the mixture is heated at 75° C. for 1 hour. Then the non-saponified substance is extracted with petroleum ether and the extract is concentrated to dryness under a nitrogen stream. The resultant residue is dissolved in a small amount of ethyl ether, pre-coated Silicagel TCL is spotted with the extract, and development is carried out with benzeneethyl acetate (99.5:0.5). The position of the ^3 H-squalene-2,3 -epoxide in the TLC is confirmed using ergosterol acetate as a marker, and the ^3 H-squalene-2,3-epoxide portion in the TLC is cut out. The TLC piece is immersed in a toluene series scintillator and measurement is made using a liquid scintillation counter. Thereby, the inhibition rates (%) against squalene epoxidase at 3 μM concentration of compounds of this invention are determined, and the results are shown in the following Table 1."}, "cholesterol biosynthesis": {"system": "cholesterol biosynthesis", "assay": "Inhibition test of in vivo cholesterol biosynthesis in rat", "parameters": "species or system rat (female SD)", "conditions": "3 mg/kg oral, n = 5, rat", "method": "Inhibition test of in vivo cholesterol biosynthesis\nIn this in vivo test, female SD rats (5 weeks old) are used. The rats are raised for 9 days under an environment where illumination is applied with reversed day and night (dark from 6 a.m. to 6 p.m.), and meanwhile they can freely ingest a solid feed and water. A test chemical is orally administered two hours before dark 6 o'clock when cholesterol biosynthesis becomes maximum. The compound is dissolved in a middle-chain fatty acid triglyceride, and orally administered at 3 mg/kg in an amount of 0.5 ml/100 g body weight. Further, the same volume of the solvent (vehicle) used is administered to control animals. […] after the administration of the test chemical, 20μ Ci/100 g body weight of ^14 C-sodium acetate (56 m Ci/m mole) is intraperitoneally administered to the rats, respectively. At dark 6 o'clock blood is sampled from the abdominal artery of each animal under ether anesthesia and centrifuged to separate the plasma.\n2 ml of 15% potassium hydroxide-methanol solution is added per ml of the plasma, and the mixture is heated at 75° C. for 3 hours to carry out saponification. Each sample is extracted twice, each time with 2 ml of petroleum ether, and the extract is washed with 2 ml of distilled water. Finally each extract is evaporated to dryness under a nitrogen stream.\nThe resultant residue is dissolved in a small amount of ethyl ether, and a pre-coated silica gel TLC is spotted with the total amount of the solution. This plate is developed with a solvent system of hexane/ethyl ether/acetic acid (85:15:4). Coloring is carried out with iodine, and radioactivity at the cholesterol part is assayed using a liquid scintillation counter.\nThe results (Table 2) are expressed by dpm values of produced ^14 C-cholesterol existing in 1 ml of each plasma. Further, the inhibition of cholesterol biosynthesis is calculated by comparing the amounts of ^14 C-cholesterol biosynthesis between the test groups and the control group."}, "rats (SD male)": {"system": "rats (SD male)", "assay": "Subacute toxicity test", "format": "in vivo, rat (SD male)", "conditions": "300 mg/kg per day oral for 7 days, 3 animals per group, 0.5% aqueous methylcellulose suspension", "method": "Subacute toxicity test example\nThe compound of Example 34 was suspended in 0.5% aqueous methylcellulose solution and orally administered to groups of rats (SD male), each group consisting of 3 animals, at a rate of 300 mg/kg per day for 7 days."}},
  "data": [
    {"smiles": "COCC(C/C=C/C#CC(C)(C)C)Cc1cccc(/C=C/c2cccc(-c3ccsc3)c2)c1", "note": "(stereo not shown) [Example 34, (E,E)-3-[3-[2-[3-(2-methoxymethyl-8,8-dimethyl-4-nonen-6-ynyl)phenyl]ethenyl]phenyl]thiophene]", "values": [
      {"measurement": "inhibition at 3 µM", "setting": "Human squalene epoxidase", "result": 100, "unit": "%"},
      {"measurement": "14C-cholesterol, dpm", "setting": "cholesterol biosynthesis; dpm of produced 14C-cholesterol in 1 ml of plasma, control values 2282-3218 dpm", "result": 347, "unit": "dpm"},
      {"measurement": "Cholesterol biosynthesis inhibition rate", "setting": "cholesterol biosynthesis; versus control group", "result": 85, "unit": "%"},
      {"measurement": "death and other toxic symptoms", "setting": "rats (SD male)", "result": "death and other toxic symptoms were not observed at all"}
    ]}
  ]
}
